{"source": "patent US20110268812A1", "about": "“Cosmetic or dermatological composition comprising the combination of honey and a peptide” (LVMH RECHERCHE, priority 2010, published 2011)", "system": "normal human fibroblasts (NHFs)", "experiment": "In vitro healing test: recolonization of the damaged zone by fibroblasts (IBIDI culture inserts)", "format": "cell-based", "conditions": "16 h treatment in DMEM alone, final concentrations: clover honey 100 μg/mL, Pal-VGVAPG solution 1%, change vs nontreated control (NT)", "description": "This experiment is based on a model of biocompatible cell culture inserts allowing quantitative and perfectly reproducible measurement of the phenomena of healing in vitro.\nThe cells used in this study are normal human fibroblasts (NHFs).\nThe cells are seeded in 175 cm^2 flasks at a density of 1 million per flask in DMEM (Dulbecco's Modified Eagle's Medium) culture medium supplemented with 10% of foetal calf serum and 1.3 mM L-glutamine. Having reached confluence, the cells are trypsinized and re-seeded for the healing test.\nBefore seeding of the cells, inserts sold in the form of kits under the name Culture-Insert (ref. 80209) by the company IBIDI (Germany) are placed at the bottom of six wells of a plate. […]\nThe cells are maintained in culture for 16 h (optimum measurement time determined previously), in an incubator at 37° C. and in an atmosphere containing 5% CO2. […]\nImages are immediately taken on a Nikon TE2000 video microscope in blue fluorescence (cell nuclei) and red fluorescence (actin filaments), at a rate of 2 photos per well at the damaged zone.\nImage analysis is used to visualize and quantify the colonization by fibroblasts of the artificially “damaged” zone after removal of the insert. […]\nThe number of cells that have recolonized the damaged zone, per unit area (cm^2), is calculated. […]", "note": "Ends that are not written are not given here. * marks the point of attachment. Palmitoyl = CCCCCCCCCCCCCCCC(=O)*"}
{"substance": "palmitoyl-Val-Gly-Val-Ala-Pro-Gly (Palmitoyl-VGVAPG) [Pal-VGVAPG, sold in the form of an aqueous-glycolic solution under the trade name Biopeptide EL by the company Sederma]", "values": [{"measurement": "recolonization of the damaged zone (number of cells having recolonized per cm^2) compared with the nontreated control", "result": "+150%"}]}
